# Molecular target: mutant form of the human GPR119 receptor (Homo sapiens (Human), UniProt Q8TDV5, S329A/T327A)
# Test: LANCE cAMP-384 assay in HEK293 cells stably expressing a mutant form of human GPR119
# Type: cell-based
# Conditions: 20 min at 37° C.
# Sequence of mutant form of the human GPR119 receptor (Q8TDV5 other isoform, or with tags, fused parts or gaps T327A/S329A): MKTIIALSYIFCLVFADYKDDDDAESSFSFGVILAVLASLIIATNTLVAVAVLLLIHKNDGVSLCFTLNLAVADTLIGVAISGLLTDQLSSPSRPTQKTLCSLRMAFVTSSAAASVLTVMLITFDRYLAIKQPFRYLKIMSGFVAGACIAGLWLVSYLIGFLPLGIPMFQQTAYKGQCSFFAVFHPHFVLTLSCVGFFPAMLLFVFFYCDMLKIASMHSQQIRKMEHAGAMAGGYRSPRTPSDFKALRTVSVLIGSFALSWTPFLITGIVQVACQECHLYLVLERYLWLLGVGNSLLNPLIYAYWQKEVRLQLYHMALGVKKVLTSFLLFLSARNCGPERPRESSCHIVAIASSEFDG
row,SMILES,EC50
1,"CC(C)OC(=O)N1CC[C@H](N(C(=O)c2ccc(-n3cncn3)c(F)c2)C2CC2)[C@H](F)C1 (single isomer, unassigned) [Example 48]",42 nM
2,"CC(C)OC(=O)N1CC[C@@H](N(C(=O)c2ccc(-n3cncn3)c(F)c2)C2CC2)[C@@H](F)C1 (single isomer, unassigned) [Example 50]",1020 nM
3,"CC(C)OC(=O)N1CCC(N(C(=O)c2ccc(-n3cncn3)c(F)c2)C2CC2)CC1 [Example 49, 4-[Cyclopropyl-(3-fluoro-4-[1,2,4]triazol-1-yl-benzoyl)-amino]-piperidine-1-carboxylic acid isopropyl ester]",338 nM
4,"Cc1nccn1-c1ccc(C(=O)N(C2CC2)C2CCN(C(=O)OC(C)C)CC2)cc1 [Example 51, 4-{Cyclopropyl-[4-(2-methyl-imidazol-1-yl)-benzoyl]-amino}-piperidine-1-carboxylic acid isopropyl ester]",1580 nM

# Molecular target: human GPR119 (Homo sapiens (Human), UniProt Q8TDV5)
# Sequence (Q8TDV5 whole entry): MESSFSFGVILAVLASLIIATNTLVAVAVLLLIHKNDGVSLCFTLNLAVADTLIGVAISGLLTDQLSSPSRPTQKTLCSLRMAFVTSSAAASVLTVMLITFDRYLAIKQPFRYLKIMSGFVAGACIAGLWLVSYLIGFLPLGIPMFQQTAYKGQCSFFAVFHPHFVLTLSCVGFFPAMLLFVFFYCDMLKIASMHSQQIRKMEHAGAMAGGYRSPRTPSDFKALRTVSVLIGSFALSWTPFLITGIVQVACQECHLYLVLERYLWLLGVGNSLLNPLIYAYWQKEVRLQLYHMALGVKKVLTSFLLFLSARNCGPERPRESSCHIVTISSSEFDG
# Test: AlphaScreen cAMP assay in MIN6 cells stably transfected with human GPR119
# Type: cell-based
# Conditions: Min-6/hGPR119 cells, 45 min incubation at room temperature
# Method in brief: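 MIN6 cells stably expressing human GPR119 were seeded at 10000 cells/well for 24 h. Compounds were then applied in pH 7.4 buffer with 0.5 mM IBMX, 0.1% BSA and 1% DMSO for 45 min at about 20 °C. Intracellular cAMP was measured by AlphaScreen.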
row,SMILES,EC50
1,"CC(C)(C)OC(=O)N1CCC(N(C(=O)c2ccc(-c3ccc(N4CCOCC4)cc3)cc2)C2CC2)CC1 [Example 101, 4-[Cyclopropyl-(4′-morpholin-4-yl-biphenyl-4-carbonyl)-amino]-piperidine-1-carboxylic acid tert-butyl ester]",127 nM
2,"CC(C)(C)OC(=O)N1CCC(N(C(=O)c2ccc(-c3ccc(C(N)=O)cc3)cc2)C2CC2)CC1 [Example 102, 4-[(4′-Carbamoyl-biphenyl-4-carbonyl)-cyclopropyl-amino]-piperidine-1-carboxylic acid tert-butyl ester]",39 nM
3,"CCNC(=O)c1ccc(-c2ccc(C(=O)N(C3CC3)C3CCN(C(=O)OC(C)(C)C)CC3)cc2)cc1 [Example 103, 4-[Cyclopropyl-(4′-ethylcarbamoyl-biphenyl-4-carbonyl)-amino]-piperidine-1-carboxylic acid tert-butyl ester]",51 nM
4,"CC(=O)NCc1ccc(-c2ccc(C(=O)N(C3CC3)C3CCN(C(=O)OC(C)(C)C)CC3)cc2)cc1 [Example 104, 4-{[4′-(Acetylamino-methyl)-biphenyl-4-carbonyl]-cyclopropyl-amino}-piperidine-1-carboxylic acid tert-butyl ester]",333 nM
5,"CC(C)(C)OC(=O)N1CCC(N(C(=O)c2ccc(-c3ccc(S(N)(=O)=O)cc3)cc2)C2CC2)CC1 [Example 105, 4-[Cyclopropyl-(4′-sulfamoyl-biphenyl-4-carbonyl)-amino]-piperidine-1-carboxylic acid tert-butyl ester]",115 nM
6,"CC(C)(C)OC(=O)N1CCC(N(C(=O)c2ccc(-c3ccc(C#N)c(F)c3)cc2)C2CC2)CC1 [Example 106, 4-[(4′-Cyano-3′-fluoro-biphenyl-4-carbonyl)-cyclopropyl-amino]-piperidine-1-carboxylic acid tert-butyl ester]",78 nM
7,"COC(=O)c1ccc(-c2ccc(C(=O)N(C3CC3)C3CCN(C(=O)OC(C)(C)C)CC3)cc2)cn1 [Example 107, 5-{4-[(1-tert-Butoxycarbonyl-piperidin-4-yl)-cyclopropyl-carbamoyl]-phenyl}-pyridine-2-carboxylic acid methyl ester]",66 nM
8,"CC(C)(C)OC(=O)N1CCC(N(C(=O)c2ccc(-c3ccc(O)nc3)cc2)C2CC2)CC1 [Example 108, 4-{Cyclopropyl-[4-(6-hydroxy-pyridin-3-yl)-benzoyl]-amino}-piperidine-1-carboxylic acid tert-butyl ester]",461 nM
9,"CCOc1ccc(-c2ccc(C(=O)N(C3CC3)C3CCN(C(=O)OC(C)(C)C)CC3)cc2)cn1 [Example 109, 4-{Cyclopropyl-[4-(6-ethoxy-pyridin-3-yl)-benzoyl]-amino}-piperidine-1-carboxylic acid tert-butyl ester]",316 nM
10,"CC(C)(C)OC(=O)N1CCC(N(C(=O)c2ccc(-c3ccc(S(C)(=O)=O)cc3F)cc2)C2CC2)CC1 [Example 110, 4-[Cyclopropyl-(2′-fluoro-4′-methanesulfonyl-biphenyl-4-carbonyl)-amino]-piperidine-1-carboxylic acid tert-butyl ester]",44 nM
11,"CNS(=O)(=O)c1ccc(-c2ccc(C(=O)N(C3CC3)C3CCN(C(=O)OC(C)(C)C)CC3)cc2)cc1 [Example 111, 4-[Cyclopropyl-(4′-methylsulfamoyl-biphenyl-4-carbonyl)-amino]-piperidine-1-carboxylic acid tert-butyl ester]",111 nM
12,"CN(C)Cc1ccc(-c2ccc(C(=O)N(C3CC3)C3CCN(C(=O)OC(C)(C)C)CC3)cc2)cc1 [Example 112, 4-[Cyclopropyl-(4′-dimethylaminomethyl-biphenyl-4-carbonyl)-amino]-piperidine-1-carboxylic acid tert-butyl ester]",1740 nM
13,"CC(C)(C)OC(=O)N1CCC(N(C(=O)c2ccc(-c3cncc(C#N)c3)cc2)C2CC2)CC1 [Example 113, 4-{[4-(5-Cyano-pyridin-3-yl)-benzoyl]-cyclopropyl-amino}-piperidine-1-carboxylic acid tert-butyl ester]",48 nM
14,"CN(C)c1ccc(-c2ccc(C(=O)N(C3CC3)C3CCN(C(=O)OC(C)(C)C)CC3)cc2)cn1 [Example 114, 4-{Cyclopropyl-[4-(6-dimethylamino-pyridin-3-yl)-benzoyl]-amino}-piperidine-1-carboxylic acid tert-butyl ester]",229 nM
15,"CC(C)(C)OC(=O)N1CCC(N(C(=O)c2ccc(-c3ccc(C(=O)O)nc3)cc2)C2CC2)CC1 [Example 115, 5-{4[(1-tert-Butoxycarbonyl-piperidin-4-yl)-cyclopropyl-carbamoyl]-phenyl}-pyridine-2-carboxylic acid]",1090 nM
16,"COC(=O)N1CCC(N(C(=O)c2ccc(-c3cnco3)cc2)C2CC2)CC1 [Example 116, 4-[Cyclopropyl-(4-oxazol-5-yl-benzoyl)-amino]-piperidine-1-carboxylic acid methyl ester]",1570 nM
17,"CCOC(=O)N1CCC(N(C(=O)c2ccc(-c3cnco3)cc2)C2CC2)CC1 [Example 117, 4-[Cyclopropyl-(4-oxazol-5-yl-benzoyl)-amino]-piperidine-1-carboxylic acid ethyl ester]",222 nM
18,"CC(C)OC(=O)N1CCC(N(C(=O)c2ccc(-c3cnco3)cc2)C2CC2)CC1 [Example 118, 4-[Cyclopropyl-(4-oxazol-5-yl-benzoyl)-amino]-piperidine-1-carboxylic acid isopropyl ester]",62 nM
19,"O=C(Oc1ccc(F)cc1)N1CCC(N(C(=O)c2ccc(-c3cnco3)cc2)C2CC2)CC1 [Example 119, 4-[Cyclopropyl-(4-oxazol-5-yl-benzoyl)-amino]-piperidine-1-carboxylic acid 4-fluoro-phenyl ester]",89 nM
20,"COc1ccc(OC(=O)N2CCC(N(C(=O)c3ccc(-c4cnco4)cc3)C3CC3)CC2)cc1 [Example 120, 4-[Cyclopropyl-(4-oxazol-5-yl-benzoyl)-amino]-piperidine-1-carboxylic acid 4-methoxy-phenyl ester]",71 nM
21,"CC(C)(C)COC(=O)N1CCC(N(C(=O)c2ccc(-c3cnco3)cc2)C2CC2)CC1 [Example 121, 4-[Cyclopropyl-(4-oxazol-5-yl-benzoyl)-amino]-piperidine-1-carboxylic acid 2,2-dimethyl-propyl ester]",45 nM
22,"CCCOC(=O)N1CCC(N(C(=O)c2ccc(-c3cnco3)cc2)C2CC2)CC1 [Example 123, 4-[Cyclopropyl-(4-oxazol-5-yl-benzoyl)-amino]-piperidine-1-carboxylic acid propyl ester]",80 nM
23,"O=C(Oc1ccccc1)N1CCC(N(C(=O)c2ccc(-c3cnco3)cc2)C2CC2)CC1 [Example 124, 4-[Cyclopropyl-(4-oxazol-5-yl-benzoyl)-amino]-piperidine-1-carboxylic acid phenyl ester]",88 nM
24,"CC(C)COC(=O)N1CCC(N(C(=O)c2ccc(-c3cnco3)cc2)C2CC2)CC1 [Example 125, 4-[Cyclopropyl-(4-oxazol-5-yl-benzoyl)-amino]-piperidine-1-carboxylic acid isobutyl ester]",45 nM
25,"O=C(OCc1ccccc1)N1CCC(N(C(=O)c2ccc(-c3cnco3)cc2)C2CC2)CC1 [Example 126, 4-[Cyclopropyl-(4-oxazol-5-yl-benzoyl)-amino]-piperidine-1-carboxylic acid benzyl ester]",128 nM
26,"C=CCOC(=O)N1CCC(N(C(=O)c2ccc(-c3cnco3)cc2)C2CC2)CC1 [Example 127, 4-[Cyclopropyl-(4-oxazol-5-yl-benzoyl)-amino]-piperidine-1-carboxylic acid allyl ester]",102 nM
27,"O=C(OC1CCCC1)N1CCC(N(C(=O)c2ccc(-c3cnco3)cc2)C2CC2)CC1 [Example 128, 4-[Cyclopropyl-(4-oxazol-5-yl-benzoyl)-amino]-piperidine-1-carboxylic acid cyclopentyl ester]",34 nM
28,"CC(C)OC(=O)N1CCC(N(C(=O)c2ccc(-c3ccc(C(N)=O)cc3)cc2)C2CC2)CC1 [Example 129, 4-[(4′-Carbamoyl-biphenyl-4-carbonyl)-cyclopropyl-amino]-piperidine-1-carboxylic acid isopropyl ester]",113 nM
29,"CC(C)(OC(=O)N1CCC(N(C(=O)c2ccc(-c3cnco3)cc2)C2CC2)CC1)C(F)(F)F [Example 130, 4-[Cyclopropyl-(4-oxazol-5-yl-benzoyl)-amino]-piperidine-1-carboxylic acid 2,2,2-trifluoro-1,1-dimethyl-ethyl ester]",10 nM

# Reference: US9469631B2 (Boehringer Ingelheim International GmbH, priority 2012, dated 2016)
